According to patent publication US20030216378A1, “Azepino[4,5-b]pyrano[3,2-e]indoles” (priority 2000, published 2003):

| melting point | SMILES |
| --- | --- |
| > 250 °C (dec.) | Cl.O=C(Cn1c2c(c3c4c(ccc31)OCCC4)CCNCC2)Nc1ccccc1 |
| 157 to 160 °C | C1=Cc2c(ccc3[nH]c4c(c23)CCN(Cc2ccccc2)CC4)OC1 |
| > 283 °C (dec.) | Cl.c1cc2[nH]c3c(c2c2c1OCCC2)CCNCC3 |
| 112 to 114 °C | Cn1c2c(c3c4c(ccc31)OCC=C4)CCN(Cc1ccccc1)CC2 [Example 1, 10-Benzyl-7-methyl-7,8,9,10,11,12-hexahydro-3H-azepino[4,5-]pyrano[3,2-e]indole] |
| 185 to 187 °C | O=C(O)Cn1c2c(c3c4c(ccc31)OCC=C4)CCN(Cc1ccccc1)CC2 [Example 8] |
| 134 to 136 °C | O=C(Cn1c2c(c3c4c(ccc31)OCC=C4)CCN(Cc1ccccc1)CC2)Nc1ccccc1 [Example 9, 2-(10-benzyl-3,8,9,10,11,12-hexahydro-7H-azepino[4.5-b]pyrano[3,2-e]indol-7-yl)-N-phenylacetamide] |
